The values that follow are results of earlier work, collected in patent US20130267484A1, “TREATMENT OF RHEUMATOID ARTHRITIS WITH MASITINIB” (AB SCIENCE, priority 2010, published 2013).

Molecules are shown by their SMILES.

In the data set the test system is human cord blood MCs. Particulars: cited from earlier work.

For the compound `Cc1ccc(NC(=O)c2ccc(CN3CCN(C)CC3)cc2)cc1Nc1nc(-c2cccnc2)cs1` [masitinib, 4-(4-methylpiperazin-1-ylmethyl)-N-[4-methyl-3-(4-pyridin-3ylthiazol-2-ylamino)phenyl]benzamide], the FcεRI-mediated degranulation entry was “inhibition”.
